According to publication PMC7397336, “5-(4H)-Oxazolones and Their Benzamides as Potential Bioactive Small Molecules” (Molecules, 2020):
Marks after values point to notes of the source that are not given here.

Key:
[1] = target: T1, soybean lipoxygenase (Glycine max, UniProt P08170); assay: Soybean lipoxygenase inhibition study; type: biochemical; conditions: for inhibition at 100 µM: read-out: LOX % inhibition 100 μM; for IC50: soybean lipoxygenase, sodium linoleate 0.1 mM, read-out: LOX IC50
T1 construct: purchased Sigma Chemical, Co. (St. Louis, MO, USA)
T1 sequence (P08170 1-839): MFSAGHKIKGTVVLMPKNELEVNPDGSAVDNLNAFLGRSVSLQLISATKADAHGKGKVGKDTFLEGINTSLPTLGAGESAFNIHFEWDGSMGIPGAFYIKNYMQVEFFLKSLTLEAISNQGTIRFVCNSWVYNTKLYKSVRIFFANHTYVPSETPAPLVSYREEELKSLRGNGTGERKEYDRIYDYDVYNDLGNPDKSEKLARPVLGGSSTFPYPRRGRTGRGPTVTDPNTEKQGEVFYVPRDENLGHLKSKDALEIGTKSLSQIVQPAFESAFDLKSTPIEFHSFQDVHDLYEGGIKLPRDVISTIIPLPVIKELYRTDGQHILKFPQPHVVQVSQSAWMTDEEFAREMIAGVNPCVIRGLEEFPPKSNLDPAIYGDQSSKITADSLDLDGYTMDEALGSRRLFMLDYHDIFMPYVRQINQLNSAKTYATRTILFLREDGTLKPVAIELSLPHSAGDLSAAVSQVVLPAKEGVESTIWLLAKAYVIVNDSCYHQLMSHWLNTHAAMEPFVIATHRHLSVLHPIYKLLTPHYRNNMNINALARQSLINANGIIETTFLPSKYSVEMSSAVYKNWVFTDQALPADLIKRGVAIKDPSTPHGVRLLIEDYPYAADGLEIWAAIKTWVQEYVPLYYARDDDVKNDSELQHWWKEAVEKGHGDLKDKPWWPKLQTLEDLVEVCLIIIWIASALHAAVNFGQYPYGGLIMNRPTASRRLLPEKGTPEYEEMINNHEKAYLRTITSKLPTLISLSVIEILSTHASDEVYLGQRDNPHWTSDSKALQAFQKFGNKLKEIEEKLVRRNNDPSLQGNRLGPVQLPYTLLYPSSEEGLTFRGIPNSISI
Description: For the in vitro assays, a stock solution (1% DMSO in the appropriate buffer with the tested compound diluted under sonification) was prepared from which several dilutions were made with the appropriate buffer. DMSO solution of the tested compound (stock solutions 10 mM) was incubated with sodium linoleate (0.1 mM) and 0.2 mL of soybean lipoxygenase solution (1/9 × 10^−4 w/v in saline) at room temperature. The test follows our previous published methods. […] Several concentrations were used to determine the IC50.

[2] = Inhibition of linoleic acid lipid peroxidation (AAPH)
Source text: Azo compounds, like AAPH, generating free radicals through spontaneous thermal decomposition are useful for in vitro studies of free radical production. Production of conjugated diene hydroperoxide by oxidation of sodium linoleate in an aqueous solution is monitored at 234 nm. This assay can be used to follow oxidative changes and to understand the contribution of each tested compound. […] It seems that the presence of moiety Ar (Scheme 1) is mainly correlated with the antioxidant result. The nature of the heteroatom O/S in Ar substituent in the 5-membered oxazolone ring (compounds 2c and 2e) influences the biological response. The replacement of the thienyl group in 2c by a furyl group (2e) leads to a 31% decrease of the antioxidant ability.
Each in vitro experiment was performed at least in triplicate and the standard deviation of absorbance was less than 10% of the mean. For the in vitro assays, a stock solution (1% DMSO in the appropriate buffer with the tested compound diluted under sonification) was prepared from which several dilutions were made with the appropriate buffer.
The AAPH-induced oxidation of linoleic acid measures the ability of an antioxidant to prevent oxidation of linoleic acid sodium salt induced by alkylperoxyl radicals, generated from the water soluble azo compound 2,2′-azobis(2-amidinopropane) dihydrochloride (AAPH). The assay was performed according to our previous publications. Trolox was used as reference compound.

[3] = target: mushroom tyrosinase (Agaricus bisporus, UniProt C7FF04); assay: Tyrosinase inhibition assay; type: biochemical; conditions: L-Dopa substrate; for inhibition at 100 µM: read-out: ΤyrI% 100 μM (inhibition of mushroom tyrosinase)
Description: For the in vitro assays, a stock solution (1% DMSO in the appropriate buffer with the tested compound diluted under sonification) was prepared from which several dilutions were made with the appropriate buffer.

[4] = system: carrageenin-induced rat paw edema; assay: Inhibition of the carrageenin-induced rat paw edema; type: in vivo, Fisher 344 rats; conditions: 0.0057 mmol/kg body weight i.p., 3.5 h after carrageenin
Description: For the estimation of anti-inflammatory potential of the tested compounds the rat carrageenin induced paw edema assay was employed as a model for acute inflammation. Indomethacin, as a reference drug, and our compounds were administered intraperitoneally in order to ensure systemic response via fast bioavailability, while carrageenin’s intradermal administration, as inflammatory agent, aimed to local response. The development of the edema induced by carrageenin has been described as a biphasic event. The early phase of the inflammatory response, lasting 0.5–1.5 h, is chiefly mediated by histamine and serotonin release inducing hyperalgesia, swelling and redness, while the later phase, lasting 3–6 h, is sustained presumably by prostaglandin release. This model reliably predicts the anti-inflammatory efficacy of the NSAIDs during the second phase, since non-steroidal anti-inflammatory drugs (NSAIDs) present weak activity in the first phase. Therefore, using this protocol we could evaluate our compounds as potential anti-inflammatory agents, as a result of inhibition of prostaglandin amplification.
The animals (Fisher 344 rats), which have been bred in our laboratory, were housed under standard conditions and received a diet of commercial food pellets and water ad libitum during the maintenance but they were entirely fasted during the experiment period. Both sexes were used while females pregnant were excluded. Each group was composed of 6–15 animals. Our studies were in accordance with recognized guidelines on animal experimentation (guidelines for the care and use of laboratory animals published by the Greek Government 160/1991, based on EU regulations 86/609). […]
Edema was induced in the right hind paw of the rats by the intradermal injection of 0.1 mL 2% carrageenin in water we followed our previous published method. […] The change in paw weight was compared with that in control animals (treated with water) and expressed as a percent inhibition of the edema CPE % values. […]

mushroom tyrosinase, sequence (G1K3P4 entry or part of it): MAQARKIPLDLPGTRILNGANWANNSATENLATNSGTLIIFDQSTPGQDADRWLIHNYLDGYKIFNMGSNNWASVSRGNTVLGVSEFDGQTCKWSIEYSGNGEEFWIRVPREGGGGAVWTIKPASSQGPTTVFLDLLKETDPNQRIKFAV
mushroom tyrosinase, sequence (C7FF04 1-392): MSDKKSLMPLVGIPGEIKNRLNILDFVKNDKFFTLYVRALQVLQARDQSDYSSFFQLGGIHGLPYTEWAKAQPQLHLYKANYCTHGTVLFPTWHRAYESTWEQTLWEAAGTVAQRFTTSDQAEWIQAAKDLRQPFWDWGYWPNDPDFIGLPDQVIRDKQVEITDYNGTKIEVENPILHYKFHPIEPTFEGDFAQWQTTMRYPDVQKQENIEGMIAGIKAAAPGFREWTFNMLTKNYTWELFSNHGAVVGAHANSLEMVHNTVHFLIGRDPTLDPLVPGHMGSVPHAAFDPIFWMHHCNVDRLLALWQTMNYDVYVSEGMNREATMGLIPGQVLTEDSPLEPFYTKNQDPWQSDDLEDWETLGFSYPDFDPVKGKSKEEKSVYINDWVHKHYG

| LOX % inhibition 100 μM ([1]; 100 µM) | ΤyrI% 100 μM (inhibition of mushroom tyrosinase) [3] | melting point [°C] | inhibition at 100 µM [3] [%] | LOX % inhibition 100 μM ([1]; 100 μM) [%] | inhibition at 100 µM ([1]; 100 µM) [%] | IC50 [1] [µM] | SMILES | AAPH% 100 µM (anti-lipid peroxidation) [2] | CPE (%) inhibition of carrageenin-induced rat paw edema [4] |
| --- | --- | --- | --- | --- | --- | --- | --- | --- | --- |
| no | no | – | – | – | – | – | O=C1OC(c2ccccc2)=N/C1=C\c1ccccc1 [Compound 2a, (Z)-4-Benzylidene-2-phenyloxazol-5(4H)-one] | 95% | – |
| no | no | 199 to 200 | – | – | – | – | O=C1OC(c2ccccc2)=N/C1=C\c1ccc(OCc2ccc(Br)cc2)cc1 [Compound 2b, (Z)-4-(4-((4-Bromobenzyl)oxy)benzylidene)-2-phenyloxazol-5(4H)-one] | 79% | – |
| no | – | – | 16 | – | – | – | O=C1OC(c2ccccc2)=N/C1=C\c1cccs1 [Compound 2c, (Z)-2-Phenyl-4-(thiophen-2-ylmethylene)oxazol-5(4H)-one] | 91% | – |
| – | – | 169 to 171 | 5 | 49 | < 50 | – | O=C1OC(c2ccccc2)=N/C1=C\c1cccc2ccccc12 [Compound 2d, (Z)-4-(Naphthalen-1-ylmethylene)-2-phenyloxazol-5(4H)-one] | 81% | – |
| – | – | – | 3 | – | – | – | O=C1OC(c2ccccc2)=N/C1=C\c1ccco1 [Compound 2e, (Z)-4-(Furan-2-ylmethylene)-2-phenyloxazol-5(4H)-one] | 60% | – |
| no | – | 169 | – | – | – | – | O=C1OC(c2ccccc2)=N/C1=C\c1ccc(Oc2ccccc2)cc1 [Compound 2f, (Z)-4-(4-Phenoxybenzylidene)-2-phenyloxazol-5(4H)-one] | no | – |
| – | – | 184 to 186 | 7 | 39 | < 50 | – | O=C(N/C(=C\c1cccs1)C(=O)N1CCOCC1)c1ccccc1 [Compound 3c, (Z)-N-(3-morpholino-3-oxo-1-(thiophen-2-yl)prop-1-en-2-yl)benzamide] | 93% | – |
| – | – | 135 to 137 | – | 37 | < 50 | – | O=C(N/C(=C\c1cccc2ccccc12)C(=O)N1CCOCC1)c1ccccc1 [Compound 3d, (Z)-N-(3-morpholino-1-(naphthalen-1-yl)-3-oxoprop-1-en-2-yl)benzamide] | 91% | – |
| – | – | 285 to 286 | 12 | – | – | 85 | O=C(N/C(=C\c1ccc(OCc2ccc(Br)cc2)cc1)C(=O)N1CCN(C(=O)/C(=C/c2ccc(OCc3ccc(Br)cc3)cc2)NC(=O)c2ccccc2)CC1)c1ccccc1 [Compound 4b, N,N′-((1Z,1′Z)-piperazine-1,4-diylbis(1-(4-((4-bromobenzyl)oxy)phenyl)-3-oxoprop-1-ene-3,2-diyl))-bis-benzamide] | 99% | – |
| – | – | 282 to 284 | 28 | – | – | 65 | O=C(N/C(=C\c1cccc2ccccc12)C(=O)N1CCN(C(=O)/C(=C/c2cccc3ccccc23)NC(=O)c2ccccc2)CC1)c1ccccc1 [Compound 4d, N,N′-((1Z,1′Z)-piperazine-1,4-diylbis(1-(naphthalen-1-yl)-3-oxoprop-1-ene-3,2-diyl))bisbenzamide] | 90% | – |
| – | – | 293 to 295 | 17 | – | – | 88 | O=C(N/C(=C\c1ccco1)C(=O)N1CCN(C(=O)/C(=C/c2ccco2)NC(=O)c2ccccc2)CC1)c1ccccc1 [Compound 4e, N,N′-((1Z,1′Z)-piperazine-1,4-diylbis(1-(furan-2-yl)-3-oxoprop-1-ene-3,2-diyl))bisbenzamide] | 83% | – |
| – | – | 181 to 182 | 13 | 41 | < 50 | – | O=C(N/C(=C\c1cccs1)C(=O)N1CCCCC1)c1ccccc1 [Compound 5c, (Z)-N-(3-Oxo-3-(piperidin-1-yl)-1-(thiophen-2-yl)prop-1-en-2-yl)benzamide] | 72% | – |
| – | – | 156 to 159 | 5 | 36 | < 50 | – | CCOC(=O)/C(=C/c1cccs1)NC(=O)c1ccccc1 [Compound 6c, (Z)-Ethyl 2-benzamido-3-(thiophen-2-yl)acrylate] | 59% | – |
| – | – | – | – | – | – | – | COc1ccc2c(c1)c(CC(=O)O)c(C)n2C(=O)c1ccc(Cl)cc1 [Indomethacin, reference compound] | – | 58 ** % |
| – | – | – | – | – | – | – | Cc1c(C)c2c(c(C)c1O)CCC(C)(C(=O)O)O2 (centres unmarked) [Trolox, reference compound] | 93% | – |
